The record followed here is patent US20020013306A1, “TERPYRIDINE-PLATINUM(II) COMPLEXES” (priority 1996, published 2002).

Where only a bound is given, the exact number is not on record here.

What all share (type): cell-based
For assay [1], the system named is SKOV3 human ovarian carcinoma cell line. Briefly: 96 h growth inhibition, sulforhodamine B assay, SKOV3. The settings on record: 96 h exposure, v = variable (mean). In general terms: In SRB staining, fixed cells bind dye roughly in proportion to their protein.
The next assay has as its system T. cruzi (MHOM/BR/00/Y). The experiment in a line: Trypanosoma cruzi in mouse peritoneal macrophages. The protocol:
Trypanosoma cruzi: […] Drug activity was determined from the % of infected macrophages in treated cultures. Nifurtimox was used as the positive control.

For assay [2], the system named is CH1 human ovarian carcinoma cell line. The experiment in a line: 96 h growth inhibition, sulforhodamine B assay, CH1. The settings on record: 96 h exposure, v = variable (mean).
The subject of assay [3] is A2780cis^R human ovarian carcinoma cell line (cisplatin resistant). The experiment in a line: 96 h growth inhibition, sulforhodamine B assay, A2780cisR. The settings on record: for IC50: 96 h exposure, growth inhibition, v = variable (mean); for RF resistance factor: IC50 resistant line/IC50 parent line: A2780cis^R / A2780.
Assay [4] concerns T. brucei (S427) bloodstream trypomastigotes. The experiment in a line: Trypanosoma brucei bloodstream trypomastigote culture.
Assay [5] has as its system CH1cis^R human ovarian carcinoma cell line (cisplatin resistant). Briefly: 96 h growth inhibition, sulforhodamine B assay, CH1cisR. The settings on record: for IC50: 96 h exposure, growth inhibition, v = variable (mean); for RF resistance factor: IC50 resistant line/IC50 parent line: CH1cis^R / CH1.
Assay [6] concerns A2780 human ovarian carcinoma cell line. Briefly: 96 h growth inhibition, sulforhodamine B assay, A2780. The settings on record: 96 h exposure, v = variable (mean).
In assay [7] the test system is CH1dox^R human ovarian carcinoma cell line (doxorubicin resistant). The experiment in a line: 96 h growth inhibition, sulforhodamine B assay, CH1doxR. The settings on record: for IC50: 96 h exposure, growth inhibition; for RF resistance factor: IC50 resistant line/IC50 parent line: CH1dox^R / CH1.

For `F[B-](F)(F)F.F[B-](F)(F)F.[NH3+][Pt-2]12[n+]3ccccc3-c3cccc([n+]31)-c1cccc[n+]12` [Compound A12], the IC50 – broadly, the midpoint of a concentration-inhibition curve – in assay [1] stood at 15 µM; in assay [2], 5.2 µM; in assay [3], 23.5 µM; in assay [5] it was 4.5 µM; in assay [6], 11.5 µM; in assay [7], 3.75 µM. Besides, the “% Inhibition, Trypanosoma cruzi” value stood at 72.3% in the assay on T. cruzi (MHOM/BR/00/Y) (1 μM), 100% in the assay on T. cruzi (MHOM/BR/00/Y) (3 μM), 100% with T. cruzi (MHOM/BR/00/Y) (10 μM) and 100% in the assay with T. cruzi (MHOM/BR/00/Y) (30 μM). Also, the figures for the “RF resistance factor: IC50 resistant line/IC50 parent line” value (“RF resistance factor” for short) in assay [3], in assay [5] and in assay [7] were 2, 0.9 and 0.7, respectively. For the same compound, the “% Inhibition, Trypanosoma brucei” value in assay [4] (0.1 μM) is listed as 83.8%; in assay [4] (0.3 μM), 98.5%; in assay [4] (1 μM) it was 100%; in assay [4] (3 μM) it was 100%; in assay [4] (10 μM), 100%; in assay [4] (30 μM), 100%.

Consider `Cc1ccncc1.F[B-](F)(F)F.F[B-](F)(F)F.NNc1cc(-c2ccccn2)nc(-c2ccccn2)c1.[Pt+2]` [R, (4-Picoline)(4′-Hydrazino-2,2′:6′,2″-Terpyridine) Platinum (II) Tetrafluoroborate], for which the IC50 in assay [1] stood at 80 µM; in assay [2], 16 µM; in assay [3], 89 µM; in assay [5], 13.5 µM; in assay [6], 39 µM; in assay [7], 5.3 µM. Moreover, the “% Inhibition, Trypanosoma cruzi” value with T. cruzi (MHOM/BR/00/Y) (1 μM) is reported as 60.8%; with T. cruzi (MHOM/BR/00/Y) (3 μM) it was 57.7%; in the assay with T. cruzi (MHOM/BR/00/Y) (10 μM) it was 65.8%; with T. cruzi (MHOM/BR/00/Y) (30 μM), 60.1%. The figures for the “RF resistance factor” value in assay [3], in assay [5] and in assay [7] were 2.3, 0.8 and 0.3, respectively. Further, the “% Inhibition, Trypanosoma brucei” value in assay [4] (0.1 μM) is given as 4.9%; in assay [4] (0.3 μM), 29.6%; in assay [4] (1 μM) it was 100%; in assay [4] (3 μM), 100%; in assay [4] (10 μM), 100%; in assay [4] (30 μM), 100%.

Turning to `CN(NC(=O)CCCCC(=O)NN(C)c1cc(-c2ccccn2)nc(-c2ccccn2)c1)c1cc(-c2ccccn2)nc(-c2ccccn2)c1.Cc1ccncc1.Cc1ccncc1.F[B-](F)(F)F.F[B-](F)(F)F.F[B-](F)(F)F.F[B-](F)(F)F.[Pt+2].[Pt+2]` [W, Adipoyl-Linked-Bis[4-Picoline(4′-(1 -Methylhydrazino)-2,2′:6′,2″-Terpyridine) Platinum(II)] Tetrafluoroborate], the IC50 in assay [1] is above 100 µM; in assay [2], 48 µM; in assay [3], 10.5 µM; in assay [5], 46 µM; in assay [6], 17 µM; in assay [7], 58 µM. For the same compound, the “% Inhibition, Trypanosoma cruzi” value in the assay with T. cruzi (MHOM/BR/00/Y) (1 μM) is on record as 0%; with T. cruzi (MHOM/BR/00/Y) (3 μM) it was 0%; in the assay on T. cruzi (MHOM/BR/00/Y) (10 μM) it was 0%; in the assay with T. cruzi (MHOM/BR/00/Y) (30 μM), 8.3%. Also, the “RF resistance factor” value was found to be 0.6 in assay [3], 0.9 in assay [5] and 1.2 in assay [7]. Moreover, the “% Inhibition, Trypanosoma brucei” value is given as 0% in assay [4] (0.1 μM); 0% in assay [4] (0.3 μM); 0% in assay [4] (1 μM); 0% in assay [4] (3 μM); 59.8% in assay [4] (10 μM); 100% in assay [4] (30 μM).
